Test results published in patent publication US20220088024A1, “METHODS FOR TREATING CANCER USING TOZADENANT” (Biotie Therapies, Inc., priority 2018, published 2022).
Read-outs that look alike come from different tables or passages of the source.

Test: Example 11: plasma pharmacokinetics (toxicokinetics) of tozadenant in mice after twice daily oral administration
Assay type: in vivo, Crl:CD1(ICR) mice
Parameters: Cmax/D / AUC0-24/D: unit not given beside the values
Details: for AUC(0-t) / AUC / Cmax / Tmax: Crl:CD1(ICR), mouse, plasma; for Cmax: read-out: Cmax
Procedure: The plasma pharmacokinetics and exposure levels of tozadendant have been documented in mice after oral administration, the same route of administration as tozadenant was dosed in the oncology efficacy studies.
The PK of tozadenant in mice was compared across a range of doses and dose frequencies. […]
Groups of mice of the Crl:CD1(ICR) strain were dosed, as follows:
The vehicle for the tozadenant in this mouse PK study was 1.6% (w/v) Avicel RC-591 (FMC), 0.2% (v/v) Tween 80, 0.18% (w/v) methylparaben and 0.02% (w/v) propylparaben in reverse osmosis water, pH 6.0±0.3. The 1.6% (w/v) Avicel RC-591 (FMC) was supplied by Biopolymer International, Brussels, Belgium. The 0.2% (v/v) Tween 80, 0.18% (w/v) methylparaben and 0.02% (w/v) propylparaben in reverse osmosis water, pH 6.0±0.3 was supplied by and Sigma-Aldrich Co Ltd, Poole, UK. This is the same formulation used for the mouse oncology model oral dosing.
The test article was administered orally by gavage, as follows:
Groups 1 to 4: Twice for one day (0 and 8 hours apart relative to initial dose)
Group 5: Twice for one day (0 and 12 hours apart relative to initial dose)
Blood samples for toxicokinetics (0.25 mL nominal) were taken from all toxicokinetic animals (subgroup 2), as follows:
For animals dosed at 0, 8 or 12 hour intervals, sampling time with respect to dose was symmetrical in each animal, for example, if an animal was sampled 0.5 hours after the first dose, it was sampled 0.5 hours after the second dose. The second sample obtained from each animal was collected under terminal anaesthesia.
Samples were taken from the orbital sinus (with the exception of Group 3 animals at the 10 hour bleed, which were taken by cardiac puncture) under isoflurane anaesthesia into K2EDTA. Samples were gently inverted to ensure mixing with anticoagulant, placed on a blood roller for at least one minute and then placed in a Kryorack until centrifugation.
Centrifugation was carried out at approximately 4-8° C. within one hour of collection. The resultant plasma from all samples was separated, transferred to uniquely labelled clear polypropylene tubes and frozen immediately at approximately <−10 to −30° C. Samples were analyzed at Covance.
Tozadenant was quantitated using protein precipitation followed by liquid chromatography mass spectrometry technique for quantification. This bioanalytical method was previously established and validated for tozadenant in mouse plasma.

[1] = Group 1, Male, 100 mg/kg/day (50 mg/kg/dose), oral, dosing at 0, 8 hr
[2] = Group 2, Male, 300 mg/kg/day (150 mg/kg/dose), oral, dosing at 0, 8 hr
[3] = Group 3, Male, 1000 mg/kg/day (500 mg/kg/dose), oral, dosing at 0, 8 hr
[4] = Group 4, 2000 mg/kg/day, dosing at 0, 8 hr
[5] = Group 4, Female, 2000 mg/kg/day (1000 mg/kg/dose), oral, dosing at 0, 8 hr
[6] = Group 4, Male, 2000 mg/kg/day (1000 mg/kg/dose), oral, dosing at 0, 8 hr
[7] = Group 5, 2000 mg/kg/day, dosing at 0, 12 hr
[8] = Group 5, Female, 2000 mg/kg/day (1000 mg/kg/dose), oral, dosing at 0, 12 hr
[9] = Group 5, Male, 2000 mg/kg/day (1000 mg/kg/dose), oral, dosing at 0, 12 hr

COc1ccc(N2CCOCC2)c2sc(NC(=O)N3CCC(C)(O)CC3)nc12 [SYN-115, 4-hydroxy-4-methyl-piperidine-1-carboxylic acid (4-methoxy-7-morpholin-4-yl-benzothiazol-2-yl)-amide]
AUC0-24/D [1]: 35.2 | Cmax/D [1]: 7.64 | AUC0-24/D [2]: 33.0 | Cmax/D [2]: 5.73 | AUC0-24/D [3]: 29.9 | Cmax/D [3]: 3.61 | Female:Male Ratio AUC0-24 [4]: 2.70 | Female:Male Ratio Cmax [4]: 2.38 | AUC0-24/D [5]: 58.0 | Cmax/D [5]: 6.05 | AUC0-24/D [6]: 21.5 | Cmax/D [6]: 2.54 | Female:Male Ratio AUC0-24 [7]: 2.02 | Female:Male Ratio Cmax [7]: 1.28 | AUC0-24/D [8]: 31.4 | Cmax/D [8]: 4.12 | AUC0-24/D [9]: 15.6 | Cmax/D [9]: 3.22 | AUC(0-t) (female, po, 2000 mg/kg/day, Group 4, Female, 2000 mg/kg/day (1000 mg/kg/dose), oral, dosing at 0, 8 hr, read-out: AUC0-8): 35400 ng·h/mL | AUC(0-t) (female, po, 2000 mg/kg/day, Group 4, Female, 2000 mg/kg/day (1000 mg/kg/dose), oral, dosing at 0, 8 hr, read-out: AUC0-24): 116000 ng·h/mL | AUC (female, po, 2000 mg/kg/day, Group 4, Female, 2000 mg/kg/day (1000 mg/kg/dose), oral, dosing at 0, 8 hr, read-out: AUC8-24): 80600 ng·h/mL | Cmax (female, po, 2000 mg/kg/day, Group 4, Female, 2000 mg/kg/day (1000 mg/kg/dose), oral, dosing at 0, 8 hr): 12100 ng/mL | Tmax (female, po, 2000 mg/kg/day, Group 4, Female, 2000 mg/kg/day (1000 mg/kg/dose), oral, dosing at 0, 8 hr, read-out: Tmax): 14 h | AUC(0-t) (female, po, 2000 mg/kg/day, Group 5, Female, 2000 mg/kg/day (1000 mg/kg/dose), oral, dosing at 0, 12 hr, read-out: AUC0-12): 35500 ng·h/mL | AUC(0-t) (female, po, 2000 mg/kg/day, Group 5, Female, 2000 mg/kg/day (1000 mg/kg/dose), oral, dosing at 0, 12 hr, read-out: AUC0-24): 62700 ng·h/mL | AUC (female, po, 2000 mg/kg/day, Group 5, Female, 2000 mg/kg/day (1000 mg/kg/dose), oral, dosing at 0, 12 hr, read-out: AUC12-24): 27200 ng·h/mL | Cmax (female, po, 2000 mg/kg/day, Group 5, Female, 2000 mg/kg/day (1000 mg/kg/dose), oral, dosing at 0, 12 hr): 8240 ng/mL | Tmax (female, po, 2000 mg/kg/day, Group 5, Female, 2000 mg/kg/day (1000 mg/kg/dose), oral, dosing at 0, 12 hr, read-out: Tmax): 1.2 h | Tmax (female, po, 2000 mg/kg/day, females, 0, 12 hour dosing, read-out: Tmax (following the first dose)): 1.2 h | Tmax (female, po, 2000 mg/kg/day, females, 2000 mg/kg/day, 0, 8 hours dosing, read-out: Tmax (after the second dose)): 6 h | AUC (male, oral, 100 mg/kg/day, mice, 100 mg/kg/day, read-out: Average AUC): 3520 ng·h/mL | AUC(0-t) (male, po, 100 mg/kg/day, Group 1, Male, 100 mg/kg/day (50 mg/kg/dose), oral, dosing at 0, 8 hr, read-out: AUC0-8): 1950 ng·h/mL | AUC(0-t) (male, po, 100 mg/kg/day, Group 1, Male, 100 mg/kg/day (50 mg/kg/dose), oral, dosing at 0, 8 hr, read-out: AUC0-24): 3520 ng·h/mL | AUC (male, po, 100 mg/kg/day, Group 1, Male, 100 mg/kg/day (50 mg/kg/dose), oral, dosing at 0, 8 hr, read-out: AUC8-24): 1570 ng·h/mL | Cmax (male, po, 100 mg/kg/day, Group 1, Male, 100 mg/kg/day (50 mg/kg/dose), oral, dosing at 0, 8 hr): 764 ng/mL | Tmax (male, po, 100 mg/kg/day, Group 1, Male, 100 mg/kg/day (50 mg/kg/dose), oral, dosing at 0, 8 hr, read-out: Tmax): 9 h
